Values after ≈ are worked out from the molar mass of the structure shown. Values joined by “and” are separate entries in the source; they are usually repeats but may differ in a detail not shown here. Identical values can stand only once. Like-named read-outs stand apart in the source and are kept apart here.
What was measured:
Staph. aureus SK & F 675 = assay type: cell-based; settings: Staphylococcus aureus
[1] = system: Staph. aureus SK & F 2621; assay type: cell-based; settings: Staphylococcus aureus
[2] = system: Staph. aureus SK & F 1761; assay type: cell-based; settings: Staphylococcus aureus
Staph. aureus HH127 = assay type: cell-based; settings: Staphylococcus aureus
Staph. aureus SK & F 674 = assay type: cell-based
C. perfringens MCP-2 = assay: microbe, parasite or virus in culture; settings: Clostridium perfringens, MCP2
[3] = system: Staph. epidermidis SK & F 2265; assay type: cell-based; settings: Staphylococcus epidermidis
[4] = system: Staph. aureus SK & F 2682; assay type: cell-based; settings: Staphylococcus aureus
[5] = system: Listeria monocytogenes SK & F 2255; assay type: cell-based; settings: Listeria monocytogenes
[6] = system: E. coli 12140 (SK & F 809); assay type: cell-based; settings: Escherichia coli
Strep. faecilis HH34358 = assay type: cell-based
[7] = system: Staph. aureus SK & F 2620; assay type: cell-based; settings: Staphylococcus aureus
[8] = system: Kleb. pneumoniae 4200 (SK & F 798); assay type: cell-based; settings: Klebsiella pneumoniae
[9] = system: Proteus mirabilis SK & F 444; assay type: cell-based; settings: Proteus mirabilis
[10] = system: Staph. aureus SK & F 2594; assay type: cell-based; settings: Staphylococcus aureus
[11] = system: Staph. aureus SK & F 2680; assay type: cell-based; settings: Staphylococcus aureus
[12] = system: Clostridium perfringens MCP-1; assay: microbe, parasite or virus in culture; settings: MCP1
[13] = system: Staph. aureus SK & F 2614; assay type: cell-based; settings: Staphylococcus aureus
B. fragilis SK & F 3060 = assay type: cell-based, Bacteroides fragilis; settings: Bacteroides fragilis
Swine in vitro model = assay: swine in vitro model (growth promotant activity)
[14] = system: B. thetaiotamicron SK & F 3089; assay type: cell-based
[15] = system: Staph. epidermidis SK & F 651; assay type: cell-based; settings: Staphylococcus epidermidis
Staph. aureus 209P = assay type: cell-based; settings: Staphylococcus aureus
[16] = system: Staph. aureus SK & F 2776; assay type: cell-based; settings: Staphylococcus aureus
[17] = system: Staph. aureus SK & F 2592; assay type: cell-based; settings: Staphylococcus aureus
[18] = system: Staph. aureus SK & F 674-P6 Mutant; assay: microbe, parasite or virus in culture; assay type: cell-based; settings: Staphylococcus aureus
[19] = system: Bacteroides fragilis ATCC 25285; assay type: cell-based; settings: Bacteroides fragilis, ATCC25285
rumen in vitro model = rumen in vitro model (growth promotant activity); design: species or system steer
Description: The protocol for the rumen in vitro model is analogous to the protocol for the swine in vitro model with the following modifications:
(1) A 400 kg steer is surgically prepared with a rumen cannula.
(2) The animal is fed one time a day with the following ration:
(3) Manipulation of VFA production is described as the production ratio of propionate as a percentage of total VFA produced.
(4) Sampling of the material, via the cannula, is at 120 minutes post feeding.

B. fragilis H145 = assay type: cell-based, Bacteroides fragilis; settings: Bacteroides fragilis, H145
[20] = system: Strep. faecalis SK & F 657; assay type: cell-based; settings: Enterococcus faecalis
[21] = system: Pseudomonas aeruginosa HH63; assay type: cell-based; settings: Pseudomonas aeruginosa, HH63
[22] = system: Staph. aureus SK & F 2597; assay type: cell-based; settings: Staphylococcus aureus
[23] = system: Staph. aureus SK & F 2613; assay type: cell-based; settings: Staphylococcus aureus
K. aridum = assay: susceptibility of K. aridum to antibiotics, disk diffusion method; assay type: cell-based, Kibdelosporangium aridum; settings: disk 30 μg
Description: Susceptibility of K. aridum to antibiotics was examined by placing BBL susceptibility disks on nutrient agar plates seeded with K. aridum as an overlay. Diameters of the zones of inhibition were measured after incubation for one week at 28° C.
Chlortetracycline ([…]) produced 18 mm zones of inhibition; tetracycline (5 μg) 11-12 mm zones; rifampin (5 μg) 11-15 mm zones; novobiocin (5 μg) 27-28 mm zones. All zones of inhibition contained at least a few resistant colonies.

[24] = system: Staph. epidermidis SK & F 2479; assay type: cell-based; settings: Staphylococcus epidermidis
[25] = system: Staph. epidermidis SK & F 2683; assay type: cell-based; settings: Staphylococcus epidermidis
[26] = system: Serratia marcesens ATCC 13880; assay type: cell-based; settings: Serratia, ATCC13880
[27] = system: Staph. aureus SK & F 2596; assay type: cell-based; settings: Staphylococcus aureus

CN[C@H](CC(C)C)C(=O)N[C@H]1C(=O)N[C@@H](CC(N)=O)C(=O)N[C@H]2C(=O)N[C@H]3C(=O)N[C@H](C(=O)N[C@H](C(=O)O)c4cc(O)cc(O)c4-c4cc3ccc4O)[C@H](O)c3ccc(c(Cl)c3)Oc3cc2cc(c3O[C@@H]2O[C@H](CO)[C@@H](O)[C@H](O)[C@H]2O[C@H]2C[C@](C)(N)[C@H](O)[C@H](C)O2)Oc2ccc(cc2Cl)[C@H]1O [Vancomycin, reference compound]
MIC (Staph. aureus SK & F 675; Table C, Methicillin Resistant): 1.6 µg/mL (≈ 1.1 µM)
MIC (Staph. aureus SK & F 675; Table E): 3.1 µg/mL (≈ 2.14 µM)
MIC [1]: 1.6 µg/mL (≈ 1.1 µM)
MIC [2]: 1.6 µg/mL (≈ 1.1 µM)
MIC (Staph. aureus HH127; HH127, Table A): 1.6 µg/mL (≈ 1.1 µM)
MIC (Staph. aureus HH127; HH127, Table B, Methicillin Sensitive): 1.6 µg/mL (≈ 1.1 µM)
MIC (Staph. aureus HH127; HH127, Table E): 3.1 µg/mL (≈ 2.14 µM)
MIC (Staph. aureus SK & F 674; Staphylococcus aureus): 1.6 µg/mL (≈ 1.1 µM)
MIC (Staph. aureus SK & F 674; Table E): 1.6 µg/mL (≈ 1.1 µM)
MIC (C. perfringens MCP-2): 0.5 µg/mL (≈ 0.345 µM)
MIC [3]: 6.3 µg/mL (≈ 4.35 µM)
MIC [4]: 1.6 µg/mL (≈ 1.1 µM)
MIC ([5]; Table A): 1.6 µg/mL (≈ 1.1 µM)
MIC ([5]; Table E): 3.1 µg/mL (≈ 2.14 µM)
MIC ([6]; Table A): 100 µg/mL (≈ 69 µM)
MIC ([6]; Table E): > 100 µg/mL
MIC (Strep. faecilis HH34358): 3.1 µg/mL (≈ 2.14 µM)
MIC (Strep. faecilis HH34358; Enterococcus faecalis, HH34358): 6.3 µg/mL (≈ 4.35 µM)
MIC [7]: 3.1 µg/mL (≈ 2.14 µM)
MIC [8]: > 100 µg/mL
MIC [9]: 100 µg/mL (≈ 69 µM)
MIC [10]: 1.6 µg/mL (≈ 1.1 µM)
MIC [11]: 1.6 µg/mL (≈ 1.1 µM)
MIC [12]: 0.5 µg/mL (≈ 0.345 µM)
MIC [13]: 1.6 µg/mL (≈ 1.1 µM)
MIC (B. fragilis SK & F 3060): 32 µg/mL (≈ 22.1 µM)
GLU (glucose) (Swine in vitro model): 190 % Control and 189 % Control
LAC (L-lactic acid) (Swine in vitro model): 64 % Control and 59 % Control
LYS (lysine) (Swine in vitro model): 48 % Control and 42 % Control and 83 % Control
MIC [14]: 32 µg/mL (≈ 22.1 µM)
MIC ([15]; Table A): 1.6 µg/mL (≈ 1.1 µM)
MIC ([15]; Table E): 6.3 µg/mL (≈ 4.35 µM)
MIC (Staph. aureus 209P): 1.6 µg/mL (≈ 1.1 µM)
MIC [16]: 1.6 µg/mL (≈ 1.1 µM)
MIC [17]: 3.1 µg/mL (≈ 2.14 µM)
MIC [18]: > 100 µg/mL
MIC [19]: 32 µg/mL (≈ 22.1 µM)
Propionate % (rumen in vitro model): 127 % Control and 130 % Control and 105 % Control
VFA (total of volatile fatty acids) (rumen in vitro model): 107 % Control and 97 % Control
MIC (B. fragilis H145): 32 µg/mL (≈ 22.1 µM)
MIC [20]: 3.1 µg/mL (≈ 2.14 µM)
MIC [21]: > 100 µg/mL
MIC [22]: 3.1 µg/mL (≈ 2.14 µM)
MIC [23]: 1.6 µg/mL (≈ 1.1 µM)
susceptibility of K. aridum (K. aridum): resistant
MIC ([24]; Table A): 1.6 µg/mL (≈ 1.1 µM)
MIC ([24]; Table E): 6.3 µg/mL (≈ 4.35 µM)
MIC [25]: 6.3 µg/mL (≈ 4.35 µM)
MIC [26]: > 100 µg/mL
MIC [27]: 3.1 µg/mL (≈ 2.14 µM)

Reference: patent US4672036A, “Pure cultures of Kibdelsporangium aridum Shearer gen. nov., sp. nov. ATCC 39323 and mutants thereof” (SmithKline Beckman Corporation, priority 1985, dated 1987)
